Reference: US20260250320A1, “LIPIDATED PEPTIDE INHIBITORS OF INTERLEUKIN-23 RECEPTOR” (Janssen Pharmaceutica NV, priority 2023, published 2026)
*1 amine or outer side, *2 acyl side, *3 side chain or, on linkers, in order; H or OH if unused. Where a SMILES comes first, the peptide text is derived from it. Bridges are numbered along the chain shown (N, C = ends). Side-chain parts run from the residue outwards. [ ]: non-standard residue; d: D form. The star is where a group is joined. ξ: configuration not given here. Me3N+(CH2)2O(CH2)2O(CH2)2CO = C[N+](C)(C)CCOCCOCCC(=O)*; Trp(7-Me) = Cc1cccc2c(C[C@H](N)C(=O)O)c[nH]c12; Abu(4-yl) = O=C([C@H](CC[*:3])N[*:1])[*:2]; C18 diacid = O=C(O)CCCCCCCCCCCCCCCCC(=O)*; γGlu = O=C(O)[C@H](CCC(=O)[*:2])N[*:1]; 2Nal = N[C@@H](Cc1ccc2ccccc2c1)C(=O)O; AEF = NCCOc1ccc(C[C@H](N)C(=O)O)cc1; X2 = C[N+](C)(C)C[C@@H](CC(=O)O)N*; 3Pal = N[C@@H](Cc1cccnc1)C(=O)O; Lys(Me) = CNCCCC[C@H](N)C(=O)O; aThr = C[C@H](O)[C@H](N)C(=O)O; Pen = CC(C)(S)[C@H](N)C(=O)O; Suc = O=C(CCC(=O)[*:2])[*:1]; Lauroyl = CCCCCCCCCCCC(=O)*; αMeC = C[C@](N)(CS)C(=O)O; ξR = N=C(N)NCCCC(N)C(=O)O; Thp = NC1(C(=O)O)CCOCC1; X1 = C[N+](C)(C)CCCCC*; AEEA = NCCOCCOCC(=O)O; Sar = CNCC(=O)O

What was measured:
[1] = tested on: IL-23-stimulated phosphorylated STAT3 in peripheral blood mononuclear cells (PBMCs); experiment: PBMC pSTAT3 Assay; format: cell-based; settings: PBMCs from healthy donors; 30 min preincubation with peptide; IL-23 5 ng/mL for 30 min; phospho-STAT3 by MSD
Procedure, shortened: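 Healthy-donor PBMCs expanded 4 days on anti-CD3 with 100 ng/mL IL-1β, starved ~4 h in RPMI-0.1% BSA, preincubated 30 min with peptide, then stimulated 30 min at 37 °C with 5 ng/mL IL-23. Lysate pSTAT3 measured by MSD phospho-STAT panel; IC50 derived.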

IL-23R = target: T1, IL-23R (Homo sapiens, UniProt Q5VWK5); experiment: IL23R Reporter Assay; format: cell-based; settings: HEK293 cells containing IL-23R, IL-12Rβ1 and STAT-inducible firefly luciferase reporter; 10 ng/mL IL-23 (EC90); 5 h
T1 construct: HEK293 cells containing IL-23R, IL-12Rβ1 and a firefly luciferase reporter gene driven by a STAT-inducible promoter (Promega); host or cells: HEK293
T1 sequence (Q5VWK5 24-629): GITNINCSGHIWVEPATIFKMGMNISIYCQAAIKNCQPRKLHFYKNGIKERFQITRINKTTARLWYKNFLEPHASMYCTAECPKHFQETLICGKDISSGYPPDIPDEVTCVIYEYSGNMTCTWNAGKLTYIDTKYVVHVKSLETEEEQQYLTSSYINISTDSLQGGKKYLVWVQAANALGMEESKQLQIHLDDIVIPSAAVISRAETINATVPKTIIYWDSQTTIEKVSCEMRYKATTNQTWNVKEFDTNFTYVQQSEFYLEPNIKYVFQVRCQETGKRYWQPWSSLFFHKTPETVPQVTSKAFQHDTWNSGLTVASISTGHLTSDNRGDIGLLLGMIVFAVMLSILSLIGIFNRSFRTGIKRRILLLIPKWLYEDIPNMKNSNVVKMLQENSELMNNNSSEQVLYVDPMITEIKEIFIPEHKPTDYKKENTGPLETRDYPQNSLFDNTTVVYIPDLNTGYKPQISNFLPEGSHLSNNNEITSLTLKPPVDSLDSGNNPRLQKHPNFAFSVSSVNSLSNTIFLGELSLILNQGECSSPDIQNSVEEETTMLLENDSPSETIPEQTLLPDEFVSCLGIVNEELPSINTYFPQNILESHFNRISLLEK
Procedure, shortened: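 HEK293 cells carrying IL-23R, IL-12Rβ1 and a STAT-driven firefly luciferase reporter (4000 cells/well) received compound, then 10 ng/mL IL-23 solution (EC90), and were incubated for 5 h at 37° C. BioGlo luminescence was normalised to IL-23 alone (0%) and 30 μM control inhibitor (100%). IC50 came from a 4-parameter Hill fit.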

IC50 (IL-23R) [nM] | Compound | IC50 [1] [nM]
< 50 | CC(=O)NCCCC[C@@H]1NC(=O)[C@H](Cc2c[nH]c3c(C)cccc23)NC(=O)[C@H]([C@@H](C)O)NC(=O)[C@H](CC(N)=O)NC(=O)[C@@H](NC(=O)[C@@H](CCCNC(=N)N)NC(C)=O)C(C)(C)SSC(C)(C)[C@@H](C(=O)N[C@@H](Cc2ccc(OCCNC(=O)COCCOCCNC(=O)COCCOCCNC(=O)CC[C@H](NC(=O)CCCCCCCCCCCCCCCCC(=O)O)C(=O)O)cc2)C(=O)N[C@@H](Cc2ccc3ccccc3c2)C(=O)NC2(C(=O)N[C@@H](CCCCNC(=O)CCC(=O)N[C@H](CC(=O)O)C[N+](C)(C)C)C(=O)N[C@@H](CC(N)=O)C(=O)N[C@@H](Cc3cccnc3)C(=O)N(C)CC(N)=O)CCOCC2)NC1=O [compound 9, MeCO-r-Pen(3)-N-T-7MeW-K(Ac)-Pen(3)-AEF(PEG2PEG2gEC18OH)-2Nal-THP-K(d)-N-3Pya-Sar-CONH2] (Ac-[dR][Pen]NT[Trp(7-Me)]K(Ac)[Pen][AEF]([AEEA-AEEA-γGlu-C18 diacid])[2Nal][Thp]K([Suc-X2])N[3Pal][Sar]-NH2; disulfide 2-7) | < 0.5
< 50 | CCCCCCCCCCCC(=O)N[C@@H](CCC(=O)NCCOCCOCC(=O)NCCOCCOCC(=O)NC(CCCNC(=N)N)C(=O)N[C@H]1CCSC[C@@](C)(C(=O)N[C@@H](Cc2ccc(OCCN)cc2)C(=O)N[C@@H](Cc2ccc3ccccc3c2)C(=O)NC2(C(=O)N[C@@H](CCC(=O)O)C(=O)N[C@@H](CC(N)=O)C(=O)N[C@@H](Cc3cccnc3)C(=O)N(C)CC(N)=O)CCOCC2)NC(=O)[C@H](CCCCNC(C)=O)NC(=O)[C@H](Cc2c[nH]c3ccccc23)NC(=O)[C@H]([C@H](C)O)NC(=O)[C@H](CC(N)=O)NC1=O)C(=O)O (stereo partly drawn) [compound 5, C12gEPEG2PEG2CO-r-Abu(1)-N-T-W-K(Ac)-aMeC(1)-AEF-2Nal-THP-E-N-3Pya-Sar-CONH2] ({Lauroyl-γGlu-AEEA-AEEA}-[ξR][Abu(4-yl)]N[aThr]WK(Ac)[αMeC][AEF][2Nal][Thp]EN[3Pal][Sar]-NH2; thioether 2-7) | 0.5 to 5
50 to 500 | C=C(N[C@@H](CC(N)=O)C(=O)N[C@@H](CC)C(C)N(C)CC(=O)N(C)C)[C@H](CCCCN(C)C(C)=O)NC(=O)C1(NC(=O)[C@H](Cc2ccc3ccccc3c2)NC(=O)[C@H](Cc2ccc(OCCCCC[N+](C)(C)C)cc2)NCC2NC(=O)[C@H](CCCCNC(=O)COCCOCCNC(=O)COCCOCCNC(=O)CC[C@H](NC(=O)CCCCCCCCCCCCCCCCCCC(=O)O)C(=O)O)NC(=O)[C@H](CC3=CCc4c(C)cccc43)NC(=O)[C@H]([C@@H](C)O)NC(=O)[C@H](CC(=O)N(C)C)NC(=O)[C@@H](NC(=O)CCOCCOCC[N+](C)(C)C)C(C)(C)SSC2(C)C)CCCCC1 (stereo partly drawn) [compound 127, cPEG3aCO-Pen(3)-N(N(Me)2)-T-7MeW-K(PEG2PEG2gEC20OH)-Pen(3)-TMAPF-2Nal-THP-K(NMeAc)-N-3Pya-Sar-CON(Me)2] | 0.5 to 5
50 to 500 | CC(=O)N(C)CCCC[C@@H]1NC(=O)[C@H](Cc2c[nH]c3ccccc23)NC(=O)[C@H]([C@@H](C)O)NC(=O)[C@H](CCCCNC(=O)COCCOCCNC(=O)COCCOCCNC(=O)CC[C@H](NC(=O)CCCCCCCCCCCCCCCCC(=O)O)C(=O)O)NC(=O)[C@@H](NC(=O)CCOCCOCC[N+](C)(C)C)C(C)(C)SSC(C)(C)[C@@H](C(=O)N[C@@H](Cc2ccc(OCCCCC[N+](C)(C)C)cc2)C(=O)N[C@@H](Cc2ccc3ccccc3c2)C(=O)NC2(C(=O)N[C@@H](CCCCN(C)C(C)=O)C(=O)N[C@@H](CC(N)=O)C(=O)N[C@@H](Cc3cccnc3)C(=O)N(C)CC(=O)N(C)C)CCOCC2)NC1=O [compound 122, cPEG3aCO-Pen(3)-K(PEG2PEG2gEC18OH)-T-7MeW-K(NMeAc)-Pen(3)-TMAPF-2Nal-THF-K(NMeAc)-N-3Pya-Sar-CON(Me)2] ({Me3N+(CH2)2O(CH2)2O(CH2)2CO}-[Pen]K([AEEA-AEEA-γGlu-C18 diacid])TW[Lys(Me)](Ac)[Pen]Y(X1)[2Nal][Thp][Lys(Me)](Ac)N[3Pal][Sar]-NMe2; disulfide 1-6) | < 0.5
